# According to PubChem BioAssay (NCI):
#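 A five-concentration, 48-hour dose response in 96-well plates underlies each endpoint, interpolated linearly between surrounding concentrations. TGI denotes the concentration required for complete inhibition of growth.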
# Columns and labels:
# Test in all cases: DTP human tumour cell line panel, 48 h
# HL-60(TB) leukemia = tested on: HL-60(TB) leukemia
# RXF 393 renal = tested on: RXF 393 renal
# HOP-62 NSCLC = tested on: HOP-62 NSCLC
# SF-295 CNS = tested on: SF-295 CNS
# K-562 leukemia = tested on: K-562 leukemia
# MCF7 breast = tested on: MCF7 breast
# CAKI-1 renal = tested on: CAKI-1 renal
# NCI/ADR-RES ovarian = tested on: NCI/ADR-RES ovarian
# ACHN renal = tested on: ACHN renal
# OVCAR-5 ovarian = tested on: OVCAR-5 ovarian
# MOLT-4 leukemia = tested on: MOLT-4 leukemia
# HCT-116 colon = tested on: HCT-116 colon
# A498 renal = tested on: A498 renal
# MDA-N = tested on: MDA-N
# MDA-MB-231 breast = tested on: MDA-MB-231 breast
# OVCAR-8 ovarian = tested on: OVCAR-8 ovarian
# SF-268 CNS = tested on: SF-268 CNS
# NCI-H23 lung = tested on: NCI-H23 lung
# HOP-92 NSCLC = tested on: HOP-92 NSCLC
# UACC-257 melanoma = tested on: UACC-257 melanoma
# UACC-62 melanoma = tested on: UACC-62 melanoma
# BT-549 breast = tested on: BT-549 breast
# SK-MEL-28 melanoma = tested on: SK-MEL-28 melanoma
# MALME-3M melanoma = tested on: MALME-3M melanoma
# SK-MEL-5 melanoma = tested on: SK-MEL-5 melanoma
# SF-539 CNS = tested on: SF-539 CNS
# HCT-15 colon = tested on: HCT-15 colon
# OVCAR-3 ovarian = tested on: OVCAR-3 ovarian
# U251 CNS = tested on: U251 CNS
# HS 578T breast = tested on: HS 578T breast
# NCI-H522 lung = tested on: NCI-H522 lung
# SNB-75 CNS = tested on: SNB-75 CNS
# PC-3 prostate = tested on: PC-3 prostate
# 786-0 renal = tested on: 786-0 renal
# TK-10 renal = tested on: TK-10 renal
# SW-620 colon = tested on: SW-620 colon
# SK-MEL-2 melanoma = tested on: SK-MEL-2 melanoma
# SR leukemia = tested on: SR leukemia
# RPMI-8226 leukemia = tested on: RPMI-8226 leukemia
# LOX IMVI melanoma = tested on: LOX IMVI melanoma
# SNB-19 CNS = tested on: SNB-19 CNS
# COLO 205 colon = tested on: COLO 205 colon
# DU-145 prostate = tested on: DU-145 prostate
# KM12 colon = tested on: KM12 colon
# SN12C renal = tested on: SN12C renal
# MDA-MB-435 = tested on: MDA-MB-435
# M14 melanoma = tested on: M14 melanoma
# A549 NSCLC = tested on: A549 NSCLC
# EKVX NSCLC = tested on: EKVX NSCLC
# NCI-H460 lung = tested on: NCI-H460 lung
# NCI-H226 lung = tested on: NCI-H226 lung
# SK-OV-3 ovarian = tested on: SK-OV-3 ovarian
# HT29 colon = tested on: HT29 colon
# IGROV1 ovarian = tested on: IGROV1 ovarian
# T-47D breast = tested on: T-47D breast
# OVCAR-4 ovarian = tested on: OVCAR-4 ovarian
# CCRF-CEM leukemia = tested on: CCRF-CEM leukemia
# UO-31 renal = tested on: UO-31 renal
# HCC-2998 colon = tested on: HCC-2998 colon
structure (smiles),measurement,setting,value
CN1CCN(CC(=O)N2c3ccccc3Sc3cc4ccccc4cc32)CC1,TGI,HL-60(TB) leukemia,4.55 µM
same,TGI,RXF 393 renal,27 µM
same,TGI,HOP-62 NSCLC,33 µM
same,TGI,SF-295 CNS,28.3 µM
same,TGI,K-562 leukemia,33.6 µM
same,TGI,MCF7 breast,31.6 µM
same,TGI,CAKI-1 renal,26 µM
same,TGI,NCI/ADR-RES ovarian,34.4 µM
same,TGI,ACHN renal,30.3 µM
same,TGI,OVCAR-5 ovarian,29.8 µM
same,TGI,MOLT-4 leukemia,28.4 µM
same,TGI,HCT-116 colon,22.2 µM
same,TGI,A498 renal,27.9 µM
same,TGI,MDA-N,22.4 µM
same,TGI,MDA-MB-231 breast,27.7 µM
same,TGI,OVCAR-8 ovarian,36.5 µM
same,TGI,SF-268 CNS,25.6 µM
same,TGI,NCI-H23 lung,40.1 µM
same,TGI,HOP-92 NSCLC,24.6 µM
same,TGI,UACC-257 melanoma,24.5 µM
same,TGI,UACC-62 melanoma,31.6 µM
same,TGI,BT-549 breast,30.2 µM
same,TGI,SK-MEL-28 melanoma,28.9 µM
same,TGI,MALME-3M melanoma,28.4 µM
same,TGI,SK-MEL-5 melanoma,34.7 µM
same,TGI,SF-539 CNS,30.9 µM
same,TGI,HCT-15 colon,34.7 µM
same,TGI,OVCAR-3 ovarian,26.1 µM
same,TGI,U251 CNS,28.7 µM
same,TGI,HS 578T breast,28.3 µM
same,TGI,NCI-H522 lung,31.9 µM
same,TGI,SNB-75 CNS,27.8 µM
same,TGI,PC-3 prostate,27.6 µM
same,TGI,786-0 renal,26.8 µM
same,TGI,TK-10 renal,29.5 µM
same,TGI,SW-620 colon,50.9 µM
same,TGI,SK-MEL-2 melanoma,31.9 µM
same,TGI,SR leukemia,31.2 µM
same,TGI,RPMI-8226 leukemia,34.1 µM
same,TGI,LOX IMVI melanoma,33.4 µM
same,TGI,SNB-19 CNS,35.3 µM
same,TGI,COLO 205 colon,36.2 µM
same,TGI,DU-145 prostate,29.3 µM
same,TGI,KM12 colon,31.8 µM
same,TGI,SN12C renal,25.2 µM
same,TGI,MDA-MB-435,23.7 µM
same,TGI,M14 melanoma,29 µM
same,TGI,A549 NSCLC,30.3 µM
same,TGI,EKVX NSCLC,25.5 µM
same,TGI,NCI-H460 lung,32.8 µM
same,TGI,NCI-H226 lung,42.8 µM
same,TGI,SK-OV-3 ovarian,30.3 µM
same,TGI,HT29 colon,16.4 µM
same,TGI,IGROV1 ovarian,32.8 µM
same,TGI,T-47D breast,46.1 µM
same,TGI,OVCAR-4 ovarian,29.1 µM
same,TGI,CCRF-CEM leukemia,83.6 µM
same,TGI,UO-31 renal,26.7 µM
O=C1c2cc3ccccc3cc2C2(c3ccc(Cl)cc3)NCCN12 (stereo not given),TGI,HL-60(TB) leukemia,80 µM
same,TGI,RXF 393 renal,42.3 µM
same,TGI,HOP-62 NSCLC,86.3 µM
same,TGI,SF-295 CNS,62 µM
same,TGI,K-562 leukemia,> 100 µM
same,TGI,MCF7 breast,77.9 µM
same,TGI,CAKI-1 renal,> 100 µM
same,TGI,NCI/ADR-RES ovarian,> 100 µM
same,TGI,ACHN renal,> 100 µM
same,TGI,OVCAR-5 ovarian,81 µM
same,TGI,MOLT-4 leukemia,> 100 µM
same,TGI,HCT-116 colon,45 µM
same,TGI,A498 renal,> 100 µM
same,TGI,MDA-N,> 100 µM
same,TGI,MDA-MB-231 breast,> 100 µM
same,TGI,OVCAR-8 ovarian,> 100 µM
same,TGI,SF-268 CNS,> 100 µM
same,TGI,NCI-H23 lung,64.1 µM
same,TGI,HOP-92 NSCLC,> 100 µM
same,TGI,UACC-257 melanoma,> 100 µM
same,TGI,UACC-62 melanoma,55.4 µM
same,TGI,BT-549 breast,> 100 µM
same,TGI,SK-MEL-28 melanoma,> 100 µM
same,TGI,SK-MEL-5 melanoma,40.4 µM
same,TGI,SF-539 CNS,61.5 µM
same,TGI,HCT-15 colon,> 100 µM
same,TGI,OVCAR-3 ovarian,53.8 µM
same,TGI,U251 CNS,> 100 µM
same,TGI,HS 578T breast,> 100 µM
same,TGI,SNB-75 CNS,> 100 µM
same,TGI,PC-3 prostate,94.9 µM
same,TGI,786-0 renal,99.2 µM
same,TGI,TK-10 renal,> 100 µM
same,TGI,SW-620 colon,> 100 µM
same,TGI,SK-MEL-2 melanoma,45.5 µM
same,TGI,SR leukemia,> 100 µM
same,TGI,RPMI-8226 leukemia,98.2 µM
same,TGI,LOX IMVI melanoma,56.3 µM
same,TGI,SNB-19 CNS,68.9 µM
same,TGI,COLO 205 colon,36.3 µM
same,TGI,DU-145 prostate,> 100 µM
same,TGI,KM12 colon,49.3 µM
same,TGI,SN12C renal,> 100 µM
same,TGI,MDA-MB-435,> 100 µM
same,TGI,M14 melanoma,92.7 µM
same,TGI,A549 NSCLC,87.4 µM
same,TGI,EKVX NSCLC,95.9 µM
same,TGI,NCI-H460 lung,> 100 µM
same,TGI,NCI-H226 lung,> 100 µM
same,TGI,SK-OV-3 ovarian,68.9 µM
same,TGI,HT29 colon,> 100 µM
same,TGI,IGROV1 ovarian,> 100 µM
same,TGI,T-47D breast,> 100 µM
same,TGI,OVCAR-4 ovarian,> 100 µM
same,TGI,HCC-2998 colon,60.4 µM
same,TGI,CCRF-CEM leukemia,> 100 µM
same,TGI,UO-31 renal,> 100 µM
